The subject of data set [1] is Human immunodeficiency virus 1. The experiment in a line: Antiviral activity against HIV1 3B in MT2 cells assessed as inhibition of viral-mediated T-cell death by MTT method. It counts as functional, organism-based. The following applies: Human immunodeficiency virus 1, 3B. On the technique in general: Formazan colour is commonly taken as a measure of viable cells.

A short description of data set [2]: Therapeutic index, ratio of IC50 for human MT2 cells to EC50 for HIV1 3B. It counts as cell-based. The note with it: read-out: Ratio IC50/EC50.
Data set [3] concerns MT2. The data set is described as follows: Cytotoxicity against human MT2 cells. It counts as cell-based.

In general, EC50 refers to the concentration that produces a half-maximal response. The IC50 is the concentration needed to halve the response being measured. Read a high IC50 as a need for much substance. For `COc1ccc(OC)c(CCNC(=S)Nc2ccc(Br)cn2)c1`, the EC50 in data set [1] is 42 nM. Moreover, the selectivity ratio in data set [2] was greater than 24. In addition, in data set [3], the IC50 was greater than 1000 nM.

Take `C#CCCOc1ccc(OC)cc1CCNC(=S)Nc1ccc(Br)cn1`: the EC50 in data set [1] came out at 23 nM. Further, in data set [2], the selectivity ratio is greater than 44. In data set [3], this molecule gave an IC50 greater than 1000 nM.

With `COc1ccc(OCCC#Cc2cn(C3C=CC(CO)O3)c(=O)[nH]c2=O)c(CCNC(=S)Nc2ccc(Br)cn2)c1` (configuration not stated), the EC50 in data set [1] turned out to be 250 nM. For the same molecule, the selectivity ratio in data set [2] was determined as 68. In data set [3], this molecule gave an IC50 of 17000 nM.

Regarding `Cc1cn([C@H]2C=C[C@@H](CO)O2)c(=O)[nH]c1=O` [STAVUDINE], the EC50 in data set [1] came to 2000 nM. For the same molecule, the selectivity ratio in data set [2] is greater than 50. In addition, in data set [3], the IC50 was greater than 100000 nM.

The record behind these values is ChEMBL document CHEMBL1139161, “[d4U]-butyne-[HI-236] as a non-cleavable, bifunctional NRTI/NNRTI HIV-1 reverse-transcriptase inhibitor” (Bioorg Med Chem Lett, 2007).
